Legend:
XeIF4E1a [1] = biological target: T1, XeIF4E1a (Xenopus laevis, UniProt P48597); assay: time-synchronized fluorescence titration of cap analogue binding; conditions: for Kas + glycerol XeIF4E1a / Kas − glycerol XeIF4E1a: equilibrium association constant; for Kas − glycerol XeIF4E1a: buffer without glycerol
T1 construct: made in house; host or cells: E. coli Rosetta2(DE3)
Text: (§1) The time-synchronized fluorescence titration method, widely used to determine the affinity constants of cap–eIF4E complexes [[20,22–26]], measures the quenching of the intrinsic fluorescence of tryptophan residues due to cap binding (Fig. S2). Knowledge of the equilibrium association constant Kas enables the calculation of the free-energy changes involved in the interaction between eIF4E and ligand, according to the standard equation ΔG° = − RTlnKas.
(§2) For human eIF4E1a and eIF4E1b and also for Xenopus eIF4E1a and its mutated forms, measurements were carried out using 0.1 μM protein in 50 mM Hepes/KOH (pH 7.2), 134.5 mM KCl, 0.5 mM EDTA and 1 mM DTT. For Xenopus eIF4E1b(ΔN27), the concentration was 0.2 μM and glycerol was added to the buffer to 10% (v/v) final concentration. […] Fluorescence of measured samples was excited at 280 nm (2.5 nm bandwidth) and detected at 337 nm or 330 nm (4 nm bandwidth), thus reducing the signal originated from the free cap analogues. Measurements were carried out on a LS-55 spectrofluorometer (Perkin Elmer Co.) using freshly prepared proteins, and the fluorescence intensities were corrected for sample dilution and the inner filter effect.
(§3) Equilibrium association constants (Kas) were determined by fitting the theoretical dependence of fluorescence intensity on the total concentration of the cap analogue to the experimental data points, according to the equation described previously (see Ref. [22] and Fig. S2c).
(§4) The final Kas was calculated as a weighted average of 2–6 independent titrations with the weights taken as the reciprocal of the numerical standard deviation squared. Numerical, nonlinear least-squares regression analysis was performed using Origin 6.0 (Microcal Software Inc.). Obtained association constants were used to determine the Gibbs free energy according to the standard equation ΔG° = − RTlnKas.

heIF4E1a = biological target: T2, heIF4E1a (Homo sapiens, UniProt P06730); assay: as above; conditions: for Kas − glycerol heIF4E1a: equilibrium association constant, buffer without glycerol
T2 construct: made in house; host or cells: E. coli Rosetta2(DE3)
Text: as §1, §2, §3, §4

heIF4E1b [2] = biological target: T3, heIF4E1b (Homo sapiens, UniProt A6NMX2); assay: as above; conditions: equilibrium association constant; buffer without glycerol
T3 construct: made in house; host or cells: E. coli Rosetta2(DE3)
T3 sequence (A6NMX2 1-242): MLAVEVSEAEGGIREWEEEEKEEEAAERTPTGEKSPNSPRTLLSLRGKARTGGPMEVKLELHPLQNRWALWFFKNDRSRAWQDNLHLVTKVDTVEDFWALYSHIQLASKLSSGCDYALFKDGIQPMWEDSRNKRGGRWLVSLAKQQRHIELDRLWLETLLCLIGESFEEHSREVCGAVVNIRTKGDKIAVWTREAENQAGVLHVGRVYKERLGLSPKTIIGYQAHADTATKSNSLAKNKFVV
Text: as §1, §2, §3, §4

heIF4E1b [3] = assay: as above; design: species or system human; conditions: without glycerol
Text: as §1, §2, §3, §4

XeIF4E1bΔN27 = assay: as above; design: species or system Xenopus laevis; conditions: 10% glycerol; for Kas + glycerol XeIF4E1bΔN27: equilibrium association constant
Text: as §1, §2, §3, §4

X4E1a1 (E101S) = biological target: T4, X4E1a1 (E101S) (Xenopus laevis, UniProt P48597, E101S); assay: fluorescence titration, XeIF4E1a mutant; format: binding; conditions: mutant (E101S) of XeIF4E1a
T4 construct: made in house; host or cells: E. coli Rosetta2(DE3)
Text: (§5) We tested the effect on cap-binding activity of these positions in the fluorescence assay with six mutated recombinant versions of Xenopus eIF4E1a (Fig. S4). The amino acids were introduced in XeIF4E1a sequentially in the order: E101S/K102R/S195A/M82S/T206L/T207S (numbering of the XeIF4E1a sequence is shifted backward by 4 amino acids relative to XeIF4E1b). […] The biggest contribution to the weaker cap binding of XeIF4E1a, in each case about 20%, resulted from changing Glu101 to Ser and Thr206 to Leu coupled with Thr207 to Ser, with the remaining mutations having only minor effects. […] Glu101 is a solvent-accessible amino acid and is proximal to Trp98 in the S3-S4 loop. […] Attenuation of the cap-binding affinity of XeIF4E1a resulting from mutating Thr206 and Thr207 is consistent with our results mentioned above showing significant influence of C-terminal loop residues on binding phosphate and the second nucleotide.
(§6) For human eIF4E1a and eIF4E1b and also for Xenopus eIF4E1a and its mutated forms, measurements were carried out using 0.1 μM protein in 50 mM Hepes/KOH (pH 7.2), 134.5 mM KCl, 0.5 mM EDTA and 1 mM DTT. For Xenopus eIF4E1b(ΔN27), the concentration was 0.2 μM and glycerol was added to the buffer to 10% (v/v) final concentration. […] The gradually increasing concentration of cap analogue quenches protein fluorescence without shifting the spectrum maximum, while at high concentrations, the fluorescence signal of free cap analogue dominates over the fluorescence from other solution components including free eIF4E and eIF4E in complex with cap (Fig. S2a). Fluorescence of measured samples was excited at 280 nm (2.5 nm bandwidth) and detected at 337 nm or 330 nm (4 nm bandwidth), thus reducing the signal originated from the free cap analogues. Measurements were carried out on a LS-55 spectrofluorometer (Perkin Elmer Co.) using freshly prepared proteins, and the fluorescence intensities were corrected for sample dilution and the inner filter effect.
(§7) Equilibrium association constants (Kas) were determined by fitting the theoretical dependence of fluorescence intensity on the total concentration of the cap analogue to the experimental data points, according to the equation described previously (see Ref. [22] and Fig. S2c). […] Along with Kas and the concentration of the active protein [P0^act], other parameters such as fL and ∆f = fPact − fPL are also gained from the fit, where fL represents the fluorescence efficiency of free cap analogue and ∆f represents the difference between the fluorescence efficiencies of the apo-protein and the complex (Fig. S2c).
as §4

X4E1a1’ (K102R) = biological target: T5, X4E1a1’ (K102R) (Xenopus laevis, UniProt P48597, K102R); assay: fluorescence titration, XeIF4E1a mutant; format: binding; conditions: mutant (K102R) of XeIF4E1a
T5 construct: made in house; host or cells: E. coli Rosetta2(DE3)
Text: as §5, §6, §7, §4

X4E1a2 (E101S/K102R) = biological target: T6, X4E1a2 (E101S/K102R) (Xenopus laevis, UniProt P48597, E101S/K102R); assay: fluorescence titration, XeIF4E1a mutant; format: binding; conditions: mutant (E101S/K102R) of XeIF4E1a
T6 construct: made in house; host or cells: E. coli Rosetta2(DE3)
Text: as §5, §6, §7, §4

[4] = biological target: T7, X4E1a3 (E101S/K102R/S195A) (Xenopus laevis, UniProt P48597, E101S/K102R/S195A); assay: fluorescence titration, XeIF4E1a mutant; format: binding; conditions: mutant (E101S/K102R/S195A) of XeIF4E1a
T7 construct: made in house; host or cells: E. coli Rosetta2(DE3)
Text: as §5, §6, §7, §4

[5] = biological target: T8, X4E1a4 (E101S/K102R/S195A/M82S) (Xenopus laevis, UniProt P48597, E101S/K102R/M82S/S195A); assay: fluorescence titration, XeIF4E1a mutant; format: binding; conditions: mutant (E101S/K102R/S195A/M82S) of XeIF4E1a
T8 construct: made in house; host or cells: E. coli Rosetta2(DE3)
Text: as §5, §6, §7, §4

[6] = biological target: T9, X4E1a6 (E101S/K102R/S195A/M82S/T206L/T207S) (Xenopus laevis, UniProt P48597, E101S/K102R/M82S/S195A/T206L/T207S); assay: fluorescence titration, XeIF4E1a mutant; format: binding; conditions: for Kas X4E1a6: mutant (E101S/K102R/S195A/M82S/T206L/T207S) of XeIF4E1a
T9 construct: made in house; host or cells: E. coli Rosetta2(DE3)
Text: as §5, §6, §7, §4

XeIF4E1a [7] = assay: time-synchronized fluorescence titration of cap analogue binding; design: species or system Xenopus laevis; conditions: without glycerol
Text: as §1, §2, §3, §4

T2 sequence (P06730 whole entry): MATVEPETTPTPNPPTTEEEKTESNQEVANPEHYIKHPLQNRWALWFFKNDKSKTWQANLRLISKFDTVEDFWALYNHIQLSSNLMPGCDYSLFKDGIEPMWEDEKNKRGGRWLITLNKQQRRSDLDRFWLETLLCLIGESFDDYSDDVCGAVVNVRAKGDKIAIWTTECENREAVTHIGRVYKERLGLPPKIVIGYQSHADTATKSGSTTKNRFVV
T9 sequence (P48597 whole entry M82S/E101S/K102R/S195A/T206L/T207S): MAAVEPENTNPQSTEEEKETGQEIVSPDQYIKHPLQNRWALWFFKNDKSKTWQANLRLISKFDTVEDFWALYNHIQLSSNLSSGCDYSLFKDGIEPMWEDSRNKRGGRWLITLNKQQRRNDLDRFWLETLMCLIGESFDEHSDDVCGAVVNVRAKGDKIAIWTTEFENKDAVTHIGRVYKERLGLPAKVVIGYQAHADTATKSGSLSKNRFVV
T1 sequence (P48597 whole entry): as the sequence (P48597 whole entry M82S/E101S/K102R/S195A/T206L/T207S) above, with S82M, S101E, R102K, A195S, L206T, S207T counted along it
T8 sequence (P48597 whole entry M82S/E101S/K102R/S195A): as the sequence (P48597 whole entry M82S/E101S/K102R/S195A/T206L/T207S) above, with L206T, S207T counted along it
T7 sequence (P48597 whole entry E101S/K102R/S195A): as the sequence (P48597 whole entry M82S/E101S/K102R/S195A/T206L/T207S) above, with S82M, L206T, S207T counted along it
T4 sequence (P48597 whole entry E101S): as the sequence (P48597 whole entry M82S/E101S/K102R/S195A/T206L/T207S) above, with S82M, R102K, A195S, L206T, S207T counted along it
T6 sequence (P48597 whole entry E101S/K102R): as the sequence (P48597 whole entry M82S/E101S/K102R/S195A/T206L/T207S) above, with S82M, A195S, L206T, S207T counted along it
T5 sequence (P48597 whole entry K102R): as the sequence (P48597 whole entry M82S/E101S/K102R/S195A/T206L/T207S) above, with S82M, S101E, A195S, L206T, S207T counted along it

Row | ΔΔG^o + glycerol XeIF4E1a (XeIF4E1a [1]; change relative to m^7Gp3G, 10% glycerol) | Kas + glycerol XeIF4E1a (XeIF4E1a [1]; 10% glycerol) | ΔΔG^o − glycerol heIF4E1a (heIF4E1a; change relative to m^7Gp3G, without glycerol) | Kas − glycerol heIF4E1a (heIF4E1a) | Kas − glycerol heIF4E1b (heIF4E1b [2]) | Ratio Kas (h4E1a) to Kas (h4E1b) (heIF4E1b [3]) | Kas − glycerol XeIF4E1a (XeIF4E1a [1]) | Kas + glycerol XeIF4E1bΔN27 (XeIF4E1bΔN27) | Kas X4E1a1 (X4E1a1 (E101S)) | Kas X4E1a1’ (X4E1a1’ (K102R)) | Kas X4E1a2 (X4E1a2 (E101S/K102R)) | Kas X4E1a3 [4] | Kas X4E1a4 [5] | decrease of association constant compared to wild-type XeIF4E1a ([6]; all six residues replaced) | Kas X4E1a6 [6] | Ratio Kas (h4E1a) to Kas (X4E1a) (XeIF4E1a [7]) | Ratio Kas (X4E1a) to Kas (X4E1bΔN27) (XeIF4E1bΔN27) | Structure (SMILES)
1 | 0.026 ± 0.018 kcal/mol | 2.189 ± 0.026 μM^− 1 | 0.128 ± 0.041 kcal/mol | 4.77 ± 0.13 μM^− 1 | 3.568 ± 0.071 μM^− 1 | 1.34 | – | – | – | – | – | – | – | – | – | – | – | CO[C@@H]1[C@H](O)[C@@H](COP(=O)(O)OP(=O)(O)OP(=O)(O)OC[C@H]2O[C@@H](n3c[n+](C)c4c(=O)[nH]c(N)nc43)[C@H](O)[C@@H]2O)O[C@H]1n1cnc2c(=O)[nH]c(N)nc21 [m^7Gpppm^2′-OG]
2 | – | 23.34 ± 0.88 μM^− 1 | – | – | 22.0 ± 1.4 μM^− 1 | – | 42.8 ± 2.0 μM^− 1 | 7.80 ± 0.41 μM^− 1 | 33.58 ± 0.66 µM⁻¹ | 34.3 ± 1.7 µM⁻¹ | 32.76 ± 0.51 µM⁻¹ | 28.1 ± 1.5 µM⁻¹ | 26.7 ± 2.2 µM⁻¹ | 50% | 19.8 ± 0.4 µM⁻¹ | – | – | Cn1c[n+]([C@@H]2O[C@H](COP(=O)([O-])OP(=O)(O)OP(=O)(O)O)[C@@H](O)[C@H]2O)c2nc(N)[nH]c(=O)c21 [m^7GTP]
3 | – | 151.1 ± 8.6 μM^− 1 | – | 419 ± 23 μM^− 1 | 89.6 ± 4.0 μM^− 1 | 4.68 | 268 ± 10 μM^− 1 | 43.0 ± 2.0 μM^− 1 | 218 ± 39 µM⁻¹ | 232.5 ± 8.3 µM⁻¹ | 202.5 ± 6.7 µM⁻¹ | 170 ± 24 µM⁻¹ | 206 ± 12 µM⁻¹ | – | 143 ± 8 µM⁻¹ | 1.57 | 3.51 | Cn1c[n+]([C@@H]2O[C@H](COP(=O)(O)OP(=O)(O)OP(=O)(O)OP(=O)(O)O)[C@@H](O)[C@H]2O)c2nc(N)[nH]c(=O)c21 [m^7Gp4]
